Test results from the NIST ThermoML archive (doi:10.1021/acs.jced.9b00399).
± gives the expanded uncertainty stated by the source.

Key:
[1] = Gas, isochoric method
[2] = xn = mol fraction of the nth substance listed; conditions: Gas, isochoric method, x1 = 0.6992

Structure (SMILES): N#N [nitrogen]
- mass density ([1]; 727.3 K, 20352 kPa): 86.58 ± 0.74 kg/m3
- mass density ([1]; 805.8 K, 22603 kPa): 86.28 ± 0.73 kg/m3
- mass density ([1]; 874.6 K, 24580 kPa): 86.14 ± 0.72 kg/m3
- mass density ([1]; 927.1 K, 26090 kPa): 86.03 ± 0.7 kg/m3

Structure (SMILES): O [water]
- mass density ([1]; 724.1 K, 15981 kPa): 58.3 ± 0.77 kg/m3
- mass density ([1]; 773.1 K, 17804 kPa): 58.58 ± 0.71 kg/m3
- mass density ([1]; 826.1 K, 19727 kPa): 58.95 ± 0.72 kg/m3
- mass density ([1]; 877.1 K, 21161 kPa): 58.02 ± 1.2 kg/m3
- mass density ([1]; 927.1 K, 22542 kPa): 57.4 ± 0.74 kg/m3

Structure (SMILES): [HH] [hydrogen]
- mass density ([1]; 722.4 K, 20262 kPa): 6.45 ± 0.059 kg/m3
- mass density ([1]; 733.6 K, 20559 kPa): 6.449 ± 0.059 kg/m3
- mass density ([1]; 743.1 K, 20811 kPa): 6.447 ± 0.059 kg/m3
- mass density ([1]; 753.6 K, 21086 kPa): 6.447 ± 0.054 kg/m3
- mass density ([1]; 763.9 K, 21370 kPa): 6.445 ± 0.057 kg/m3
- mass density ([1]; 773.4 K, 21625 kPa): 6.445 ± 0.058 kg/m3
- mass density ([1]; 784.3 K, 21917 kPa): 6.444 ± 0.058 kg/m3
- mass density ([1]; 792.8 K, 22153 kPa): 6.443 ± 0.058 kg/m3
- mass density ([1]; 803.8 K, 22451 kPa): 6.442 ± 0.058 kg/m3
- mass density ([1]; 812.9 K, 22702 kPa): 6.442 ± 0.056 kg/m3
- mass density ([1]; 822.2 K, 22963 kPa): 6.441 ± 0.056 kg/m3
- mass density ([1]; 834.3 K, 23222 kPa): 6.422 ± 0.054 kg/m3
- mass density ([1]; 844.3 K, 23469 kPa): 6.412 ± 0.056 kg/m3
- mass density ([1]; 854.7 K, 23640 kPa): 6.381 ± 0.058 kg/m3
- mass density ([1]; 863.3 K, 23818 kPa): 6.366 ± 0.057 kg/m3
- mass density ([1]; 874.1 K, 24069 kPa): 6.354 ± 0.053 kg/m3
- mass density ([1]; 883.3 K, 24272 kPa): 6.344 ± 0.054 kg/m3
- mass density ([1]; 892.3 K, 24413 kPa): 6.337 ± 0.054 kg/m3
- mass density ([1]; 904.5 K, 24668 kPa): 6.324 ± 0.056 kg/m3
- mass density ([1]; 914.1 K, 24899 kPa): 6.319 ± 0.054 kg/m3
- mass density ([1]; 924 K, 25112 kPa): 6.313 ± 0.058 kg/m3

Structure (SMILES): [HH] [hydrogen] + O=C=O
- mass density ([2]; 673.4 K, 20652 kPa): 50.77 ± 0.47 kg/m3
- mass density ([2]; 683.6 K, 20986 kPa): 50.78 ± 0.43 kg/m3
- mass density ([2]; 693.5 K, 21304 kPa): 50.79 ± 0.48 kg/m3
- mass density ([2]; 703.3 K, 21638 kPa): 50.85 ± 0.48 kg/m3
- mass density ([2]; 713.9 K, 21981 kPa): 50.87 ± 0.47 kg/m3
- mass density ([2]; 723.3 K, 22282 kPa): 50.87 ± 0.44 kg/m3
- mass density ([2]; 733.9 K, 22610 kPa): 50.86 ± 0.49 kg/m3
- mass density ([2]; 743.9 K, 22909 kPa): 50.82 ± 0.47 kg/m3
- mass density ([2]; 753.6 K, 23216 kPa): 50.82 ± 0.47 kg/m3
